Experimental findings from paper PMC10451377, “Rationally Designed Pyrimidine Compounds: Promising Novel Antibiotics for the Treatment of Staphylococcus aureus-Associated Bovine Mastitis” (Antibiotics, 2023) are described below.

The subject of series [1] is Escherichia coli ΔlptD4213. Nature of the series: microbe, parasite or virus in culture. The series is classed as cell-based. The conditions noted are these: read-out: Broth Microdilution MIC. An excerpt: Reference strains for this study (S. aureus ATCC 29213, ATCC 29740 [bovine mastitis strain Newbould], S. epidermidis ATCC 12228, E. coli ATCC 35695, E. faecalis ATCC 29212) were obtained from the American Type Culture Collection (ATCC, Rockville, MD). S. aureus strains CMRSA-10 and CMRSA-2 were obtained from the Laboratoire de santé publique du Québec (LSPQ, Sainte-Anne-de-Bellevue, QC, Canada) and are Canadian CA-MRSA USA-300 and HA-MRSA USA-100 clones, respectively. The strain E. coli imp4213 (lptD), used as a control in MIC assays, is a derivative of E. coli ATCC 35695 (E. coli MC4100) with an increased membrane permeability. […] Other MRSA strains used in this study are clinical isolates of human origin obtained from the microbiology laboratory of the Centre Hospitalier Universitaire de Sherbrooke (CHUS, Sherbrooke, QC, Canada). Bovine mastitis strains (S. aureus, S. chromogenes, S. haemolyticus, S. hominis, S. simulans) were obtained from the Canadian Bovine Mastitis and Milk Quality Research Network (CBRQMN, St-Hyacinthe, QC, Canada). Among these strains, S. aureus 2117 is a high producer of biofilm and was used in the biofilm-eradication assay. S. epidermidis isolates were provided by Centre de Recherche en Infectiologie (CRI) de Québec (Québec, QC, Canada).

Series [2] deals with Bacillus subtilis xpt-lacZ. Nature of the series: Broth microdilution MIC. It counts as cell-based. As to conditions: B. subtilis xpt-lacZ, read-out: Broth Microdilution MIC.
The test system of series [3] is S. aureus Newbould, S. aureus CMRSA-10, S. epidermidis ATCC 12228. Nature of the series: Kill kinetics. It counts as cell-based, staphylococci. Here is the method: Time-kill kinetics studies were performed to define the bactericidal effect of PC206. S. aureus Newbould, CMRSA-10, or S. epidermidis ATCC 12228 were inoculated at a density of approximately 5 × 10^5 CFU/mL in CAMHB in the absence or presence of PC206 and were incubated with agitation (225 rpm) for 24 h at 35 °C. Right before inoculation and 0.5, 1, 2, 4, 8 and 24 h thereafter, bacterial cultures were sampled, serially diluted, and plated on tryptic soya agar (TSA) plates that were incubated at 35 °C for 24 h to determine viable counts with a detection limit of 2 log10 CFU/mL.

Series [4] has as its system S. aureus bovine strain 2117 embedded in preformed biofilm. Nature of the series: Biofilm-eradication test (MBEC assay). The conditions noted are these: 24 h exposure. It counts as cell-based, Staphylococcus aureus. As to the method: The viability of bacteria in preformed biofilms treated with PC206 was evaluated using the MBEC assay™ system (formerly the Calgary Biofilm Device). The device consists of a plastic lid with 96 pegs and a 96-well plate. […] Plates were incubated at 35 °C for 24 h with agitation (120 rpm). […] The pegs were washed three times with PBS and the biofilm was sonicated for 10 min, and then transferred into a new 96-well base plate. The 96-well plate was centrifuged for 5 min at 180 g to recover the detached bacteria.

Series [5] deals with guanine riboswitch-lacZ fusion construct (xpt-lacZ). Nature of the series: Riboswitch regulation assay (lacZ-gene reporter). It counts as cell-based, B. subtilis. As to conditions: 64 µg/mL. The text has this:
The novel pyrimidine compounds, especially PC206, display specificity and potency against some staphylococci but not the other bacterial genus (Table 1 and Table 2). Because they are structurally derived from PC1 and PC2, these novel antibiotic candidates are expected to have the same mode of action. […] To verify this hypothesis, a strain of B. subtilis with a guanine riboswitch-lacZ fusion construct (named xpt-lacZ) integrated in its chromosome was exposed to these new antimicrobials. […] Therefore, it is an adequate reporter species. The metabolization of substrate ONPG into colored ONP was normalized by the bacterial suspension absorbance at 600 nm (Miller units) and relativized to the untreated condition.
β-galactosidase gene expression in the presence of the new pyrimidine analogs was studied, using an xpt-lacZ transcriptional fusion construct integrated in the genome of B. subtilis as previously described. Briefly, cultures were grown for 5 h at 35 °C in CAMHB, from an initial optical density of 0.05 at 600 nm (OD600), and then diluted 1:20 and in the presence of different concentrations of the compounds tested. Cultures were centrifuged for 10 min at 13,100 rpm, the supernatant was discarded, and pellets were suspended in a Z-buffer (NaH2PO4 40 mM, Na2HPO4 60 mM, MgSO4 1 mM, KCl 10 mM). Cultures OD600 were measured, and bacteria were then lysed with lysozyme (1 mg/mL) and β-mercaptoethanol 50 mM for 30 min. Lysates were centrifuged for 10 min at 13,100 rpm, and supernatants were incubated for 5 min at 30 °C with the substrate orthonitrophenyl-β-galactoside (ONPG; Sigma Aldrich). Reactions were stopped with Na2CO3 1M, supernatants OD420 were measured, and Miller units were calculated. A decrease in β-galactosidase activity indicated binding of the test compound to the riboswitch. Guanine and oxacillin were used as […] controls, respectively. The formula to measure Miller units is as follows: Millerunits=1000×OD420/t·v·OD600
Here, t represents the time of incubation with ONPG, and v represents the volume of the reaction.

A short description of a further series: LDH release assay. It counts as cell-based. The conditions noted are these: human, HepG2 cells.
Series [6] can be described thus: Recovery of PC206 from quarter milk after intramammary infusion. It counts as in vivo. As to conditions: cows. Here is the method: The innocuity of PC206 was evaluated in cows, as previously described for other test substances. Following morning milking, each of the four mammary gland quarters […] was infused with various doses of PC206 (100, 250, 500 mg) or saline as a negative control. […] Cows were milked using an individual quarter-milking unit in order to measure individual quarter-milk production. PC206 concentration in milk was also measured; milk samples were diluted with an equal volume of isopropanol and washed 3 times with hexane. PC206 was extracted using ethyl acetate, filtered on Na2SO4, and evaporated. The dried samples were diluted 80:20 in ACN:H2O containing an internal standard. The content of PC206 was determined using single-ion monitoring (SIMS) on UPLC-MS.

Series [7] deals with S. aureus Newbould (ATCC 29740). Nature of the series: Murine mastitis model. As to conditions: two intramammary doses of 500 µg.
Series [8] concerns Staphylococcus aureus ATCC 29213. Nature of the series: Broth microdilution MIC. As to conditions: ATCC29213, read-out: Broth Microdilution MIC.
Series [9] concerns Escherichia coli ATCC 35695. Nature of the series: Broth microdilution MIC. As to conditions: ATCC35695, read-out: Broth Microdilution MIC.

Values after ≈ are worked out from the molar mass of the structure shown. Where only a bound is given, the exact number is not on record here.

As to `CCCCCCNc1cc(N)nc(N)n1` [PC206], the MIC in series [1] is over 128 µg/mL; in series [2], 128 µg/mL (≈ 612 µM); in series [8] it was 8 µg/mL (≈ 38.2 µM); in series [9], over 128 µg/mL. The “Reduction of bacterial viable counts at 24 h compared to the initial inoculum” value in series [3] (4× MIC) is listed as 0.5–1.5 log10 CFU/mL. Besides, the “Qualification from kill kinetics” value in [3] (up to 4× MIC, 24 h) was “bacteriostatic agent”. Further, the “Reduction in CFU/peg compared to the untreated biofilm” value is given as 1.28 log10 in series [4] (32 µg/mL), 2.40 log10 in series [4] (128 µg/mL) and 5.43 log10 in series [4] (512 µg/mL). The “Miller units remaining, relative to the untreated condition” value in [5] worked out at 35%. In “LDH release assay”, the CC50 at 24 h worked out at 149 ± 24 µM. Also, the “Time the concentration in quarter milk remained above the MIC (8 µg/mL)” value in series [6] (single intramammary infusion of 100 mg) is “over 2 h”; in series [6] (single intramammary infusion of 250 mg), over 4 h; in series [6] (single intramammary infusion of 500 mg) it was “about 8 h”. Also, in [7], the “Tolerability in mice and mammary gland tissues” value was “No inflammation, damage, nor adverse effects were observed”. Moreover, the “Difference in median bacterial counts versus untreated mice” value in [7] (1 and 4 h after infection, glands harvested 14 h post-infection) is listed as 1.24 log10 CFU/g of gland.
